In PubChem BioAssay (NCI):
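Dose response: 5 concentrations. Exposure: 48 h. Format: 96-well plates. Endpoint: linear interpolation; highest concentration if not reached. GI50: concentration for 50% inhibition of growth. TGI marks complete inhibition of growth.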

Assays:
Assay in all cases: DTP human tumour cell line panel, 48 h
[1] = test system: HT29 colon
[2] = test system: SF-295 CNS
[3] = test system: COLO 205 colon
[4] = test system: NCI-H23 lung
[5] = test system: TK-10 renal
[6] = test system: SK-MEL-5 melanoma
[7] = test system: NCI/ADR-RES ovarian
[8] = test system: SN12C renal
[9] = test system: SK-MEL-2 melanoma
[10] = test system: A549 NSCLC
[11] = test system: DU-145 prostate
[12] = test system: SR leukemia
[13] = test system: SF-539 CNS
[14] = test system: 786-0 renal
[15] = test system: MDA-MB-435
[16] = test system: NCI-H226 lung
[17] = test system: RPMI-8226 leukemia
[18] = test system: HCC-2998 colon
[19] = test system: PC-3 prostate
[20] = test system: K-562 leukemia
[21] = test system: U251 CNS
[22] = test system: OVCAR-8 ovarian
[23] = test system: NCI-H460 lung
[24] = test system: ACHN renal
[25] = test system: LOX IMVI melanoma
[26] = test system: SK-MEL-28 melanoma
[27] = test system: IGROV1 ovarian
[28] = test system: MOLT-4 leukemia
[29] = test system: SF-268 CNS
[30] = test system: SW-620 colon
[31] = test system: HCT-116 colon
[32] = test system: UACC-62 melanoma
[33] = test system: EKVX NSCLC
[34] = test system: KM12 colon
[35] = test system: RXF 393 renal
[36] = test system: BT-549 breast
[37] = test system: CAKI-1 renal
[38] = test system: MDA-N
[39] = test system: UO-31 renal
[40] = test system: CCRF-CEM leukemia
[41] = test system: T-47D breast
[42] = test system: OVCAR-3 ovarian
[43] = test system: HOP-92 NSCLC
[44] = test system: M14 melanoma
[45] = test system: SK-OV-3 ovarian
[46] = test system: MCF7 breast
[47] = test system: HCT-15 colon
[48] = test system: UACC-257 melanoma
[49] = test system: SNB-19 CNS
[50] = test system: OVCAR-5 ovarian
[51] = test system: HL-60(TB) leukemia
[52] = test system: MALME-3M melanoma
[53] = test system: OVCAR-4 ovarian
[54] = test system: MDA-MB-231 breast
[55] = test system: HOP-62 NSCLC
[56] = test system: SNB-75 CNS
[57] = test system: A498 renal
[58] = test system: HS 578T breast
[59] = test system: NCI-H522 lung

C(=C\c1cccs1)/c1cccc(/C=C/c2cccs2)n1
TGI [1]: > 100 µM | TGI [2]: > 100 µM | TGI [3]: > 100 µM | TGI [4]: > 100 µM | TGI [5]: > 100 µM | TGI [6]: > 100 µM | TGI [7]: > 100 µM | TGI [8]: > 100 µM | TGI [9]: > 100 µM | TGI [10]: > 100 µM | TGI [11]: > 100 µM | TGI [12]: > 100 µM | TGI [13]: > 100 µM | TGI [14]: > 100 µM | TGI [15]: > 100 µM | TGI [16]: > 100 µM | TGI [17]: > 100 µM | TGI [18]: > 100 µM | TGI [19]: > 100 µM | TGI [20]: > 100 µM | TGI [21]: > 100 µM | TGI [22]: > 100 µM | TGI [23]: > 100 µM | TGI [24]: 38.9 µM | TGI [25]: > 100 µM | TGI [26]: > 100 µM | TGI [27]: > 100 µM | TGI [28]: > 100 µM | TGI [29]: 6.9 µM | TGI [30]: > 100 µM | TGI [31]: > 100 µM | TGI [32]: > 100 µM | TGI [33]: > 100 µM | TGI [34]: > 100 µM | TGI [35]: > 100 µM | TGI [36]: > 100 µM | TGI [37]: > 100 µM | TGI [38]: > 100 µM | TGI [39]: > 100 µM | TGI [40]: > 100 µM | TGI [41]: > 100 µM | TGI [42]: > 100 µM | TGI [43]: > 100 µM | TGI [44]: > 100 µM | TGI [45]: > 100 µM | TGI [46]: > 100 µM | TGI [47]: > 100 µM | TGI [48]: > 100 µM | TGI [49]: > 100 µM | TGI [50]: > 100 µM | TGI [51]: > 100 µM | TGI [52]: 3.21 µM | TGI [53]: 66.6 µM | TGI [54]: > 100 µM | TGI [55]: > 100 µM | TGI [56]: 79.4 µM

Cc1nc2ccccc2n1COC(Cn1ccnc1)c1ccc(Cl)cc1Cl (stereo unspecified)
TGI [1]: > 100 µM | TGI [2]: > 100 µM | TGI [3]: > 100 µM | TGI [4]: > 100 µM | TGI [5]: > 100 µM | TGI [6]: 53.5 µM | TGI [7]: > 100 µM | TGI [8]: > 100 µM | TGI [9]: > 100 µM | TGI [10]: > 100 µM | TGI [11]: > 100 µM | TGI [12]: > 100 µM | TGI [13]: > 100 µM | TGI [14]: > 100 µM | TGI [15]: > 100 µM | TGI [17]: > 100 µM | TGI [18]: > 100 µM | TGI [19]: > 100 µM | TGI [20]: > 100 µM | TGI [21]: > 100 µM | TGI [22]: > 100 µM | TGI [23]: 46.4 µM | TGI [24]: > 100 µM | TGI [25]: > 100 µM | TGI [26]: > 100 µM | TGI [27]: > 100 µM | TGI [28]: > 100 µM | TGI [29]: > 100 µM | TGI [30]: > 100 µM | TGI [31]: > 100 µM | TGI [32]: > 100 µM | TGI [33]: > 100 µM | TGI [34]: > 100 µM | TGI [36]: 91.2 µM | TGI [37]: 39 µM | TGI [38]: > 100 µM | TGI [39]: > 100 µM | TGI [40]: > 100 µM | TGI [41]: > 100 µM | TGI [42]: > 100 µM | TGI [57]: > 100 µM | TGI [43]: 77.6 µM | TGI [44]: > 100 µM | TGI [58]: > 100 µM | TGI [46]: > 100 µM | TGI [47]: > 100 µM | TGI [48]: > 100 µM | TGI [59]: > 100 µM | TGI [49]: > 100 µM | TGI [50]: > 100 µM | TGI [51]: 85.4 µM | TGI [52]: > 100 µM | TGI [53]: > 100 µM | TGI [54]: > 100 µM | TGI [55]: > 100 µM | TGI [56]: > 100 µM

CCOC(=O)c1cnc2oc3ccc(O)cc3c2c1C
TGI [1]: > 100 µM | TGI [2]: > 100 µM | TGI [3]: > 100 µM | TGI [4]: > 100 µM | TGI [5]: > 100 µM | TGI [6]: > 100 µM | TGI [7]: > 100 µM | TGI [8]: > 100 µM | TGI [9]: > 100 µM | TGI [10]: > 100 µM | TGI [11]: > 100 µM | TGI [12]: > 100 µM | TGI [13]: > 100 µM | TGI [14]: > 100 µM | TGI [15]: > 100 µM | TGI [16]: > 100 µM | TGI [17]: > 100 µM | TGI [18]: > 100 µM | TGI [19]: > 100 µM | TGI [20]: > 100 µM | TGI [21]: > 100 µM | TGI [22]: > 100 µM | TGI [23]: > 100 µM | TGI [24]: > 100 µM | TGI [25]: > 100 µM | TGI [26]: > 100 µM | GI50 [27]: 86.2 µM | TGI [27]: > 100 µM | TGI [28]: > 100 µM | GI50 [29]: 69.9 µM | TGI [29]: > 100 µM | TGI [30]: > 100 µM | TGI [31]: > 100 µM | TGI [32]: > 100 µM | TGI [33]: > 100 µM | GI50 [34]: 70.3 µM | TGI [34]: > 100 µM | TGI [35]: > 100 µM | TGI [37]: > 100 µM | TGI [38]: > 100 µM | TGI [40]: > 100 µM | TGI [41]: > 100 µM | TGI [42]: > 100 µM | TGI [57]: > 100 µM | TGI [43]: > 100 µM | TGI [44]: > 100 µM | TGI [58]: > 100 µM | TGI [45]: > 100 µM | TGI [46]: > 100 µM | TGI [47]: > 100 µM | TGI [48]: > 100 µM | TGI [49]: > 100 µM | TGI [50]: > 100 µM | TGI [51]: > 100 µM | TGI [52]: > 100 µM | TGI [53]: > 100 µM | TGI [54]: > 100 µM | GI50 [56]: 26 µM | TGI [56]: 82.9 µM
